Source: patent US20230357139A1, “SMALL MOLECULE INHIBITORS OF BACTERIAL TOXINS” (Artizan Biosciences, Inc., priority 2020, published 2023)
Where two headings read alike, the source gives them in different places.

Key:
recombinant BFT (rBFT) = experiment: NFF-3 cleavage assay; assay type: biochemical, B. fragilis
Experimental: A NFF-3 cleavage assay was used to test activity of recombinant BFT, before or after addition of various inhibitors. The NFF-3 cleavage assay was previously described by Goulas et al., PNAS, 2011, 108(5) 1856-1861, which is incorporated by reference herein in its entirety.
Initially, recombinant BFT (rBFT) (0.25, 0.5, 1, 2, 4, 8, or 16 μg/mL) was incubated at 37° C. with the fluorogenic substrate NFF-3 (Cayman Chemical) at a concentration of 2.5 μM, 5 μM, or 10 μM. After 18 hours, fluorescence was measured in a microplate fluorimeter.
Next, rBFT was pre-incubated with one or more test compounds at different concentrations for 30 minutes at 37° C. The rBFT-compound mixture was then added to NFF-3 and incubated for 24 hours at 37° C. Fluorescence was then measured in a microplate fluorimeter.

BFT = experiment: E-cadherin release assay (BFT-induced E-cadherin release from HT29 cells); assay type: cell-based, B. fragilis
Experimental: Test compounds were also screened for their ability to inhibit BFT-induced E-cadherin release from HT29 cells.
Different concentrations of test compounds were pre-incubated with rBFT for one hour at 37° C. The rBFT-compound mixture was then added to HT29 cells and incubated at 37° C. for 18 hours. Following incubation, cell supernatants were harvested and E-cadherin was quantified in the supernatants by ELISA (FIG. 2).

Gelatinase E (GelE) = Gelatinase E (GelE) (Enterococcus faecalis (strain ATCC 700802 / V583), UniProt Q833V7); experiment: Gelatinase E activity assay (FRET peptide substrate); assay type: biochemical; details: for IC50: Table 11
Experimental: Gelatinase E (Gel E) was purified from bacterial culture supernatant from E. faecalis. E. faecalis was cultured aerobically in Todd Hewitt Broth overnight at 37° C. Nucleic acid was precipitated with 0.9% protamine solution, followed by protein precipitation with ammonium sulfate. Resuspended protein pellet was further subjected to purification using FPLC (phenyl Sepharose column). Fractions with gelatinase activity as determined by casein agar assay were pooled and further concentrated.
Different concentrations of test compound were incubated with purified GelE and FRET-based peptide substrate (390 MMP FRET Substrate 1; Anaspec AS-27077) in assay buffer at room temperature for 30 minutes. The fluorescence signal was determined by a plate reader.

collagenase H (ColH) = collagenase H (ColH) (Hathewaya histolytica, UniProt Q46085); experiment: biochemical; set-up: species or system Clostridium histolyticum
ETBF = experiment: ETBF-mediated disease model in mono-colonized germ-free mice; assay type: in vivo; details: for lipocalin2 levels: 15-50 mg/kg p.o., QD
Experimental: Test compounds were also screened in vivo. Germ-free (GF) mice were mono-colonized with ETBF on day 0. […] Markers of injury and inflammation (e.g., cecal weight and fecal lipocalin 2) were analyzed on day 4 (FIG. 6A). Sample size was 5-6 mice per group.

[1] = rBFT pre-incubated with compound 30 minutes at 37° C., then NFF-3 for 24 hours, read-out: NFF3 IC50
[2] = 18 hours, E-cadherin in supernatant by ELISA, read-out: HT29 Cell IC50
[3] = ETBF-colonized mice, 50 mg/kg oral BID days 1-3, analyzed day 4

Gelatinase E (GelE), sequence (Q833V7 193-510 limits assumed): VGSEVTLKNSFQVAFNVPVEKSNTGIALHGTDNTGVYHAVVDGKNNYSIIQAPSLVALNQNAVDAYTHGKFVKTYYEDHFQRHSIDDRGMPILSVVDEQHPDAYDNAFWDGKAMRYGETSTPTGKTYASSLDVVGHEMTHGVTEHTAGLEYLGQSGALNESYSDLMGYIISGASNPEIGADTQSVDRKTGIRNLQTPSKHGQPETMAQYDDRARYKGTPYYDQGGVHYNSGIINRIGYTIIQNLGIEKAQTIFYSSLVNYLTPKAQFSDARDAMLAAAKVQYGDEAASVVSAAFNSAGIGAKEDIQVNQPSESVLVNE
collagenase H (ColH), sequence (Q46085 41-1021 limits assumed): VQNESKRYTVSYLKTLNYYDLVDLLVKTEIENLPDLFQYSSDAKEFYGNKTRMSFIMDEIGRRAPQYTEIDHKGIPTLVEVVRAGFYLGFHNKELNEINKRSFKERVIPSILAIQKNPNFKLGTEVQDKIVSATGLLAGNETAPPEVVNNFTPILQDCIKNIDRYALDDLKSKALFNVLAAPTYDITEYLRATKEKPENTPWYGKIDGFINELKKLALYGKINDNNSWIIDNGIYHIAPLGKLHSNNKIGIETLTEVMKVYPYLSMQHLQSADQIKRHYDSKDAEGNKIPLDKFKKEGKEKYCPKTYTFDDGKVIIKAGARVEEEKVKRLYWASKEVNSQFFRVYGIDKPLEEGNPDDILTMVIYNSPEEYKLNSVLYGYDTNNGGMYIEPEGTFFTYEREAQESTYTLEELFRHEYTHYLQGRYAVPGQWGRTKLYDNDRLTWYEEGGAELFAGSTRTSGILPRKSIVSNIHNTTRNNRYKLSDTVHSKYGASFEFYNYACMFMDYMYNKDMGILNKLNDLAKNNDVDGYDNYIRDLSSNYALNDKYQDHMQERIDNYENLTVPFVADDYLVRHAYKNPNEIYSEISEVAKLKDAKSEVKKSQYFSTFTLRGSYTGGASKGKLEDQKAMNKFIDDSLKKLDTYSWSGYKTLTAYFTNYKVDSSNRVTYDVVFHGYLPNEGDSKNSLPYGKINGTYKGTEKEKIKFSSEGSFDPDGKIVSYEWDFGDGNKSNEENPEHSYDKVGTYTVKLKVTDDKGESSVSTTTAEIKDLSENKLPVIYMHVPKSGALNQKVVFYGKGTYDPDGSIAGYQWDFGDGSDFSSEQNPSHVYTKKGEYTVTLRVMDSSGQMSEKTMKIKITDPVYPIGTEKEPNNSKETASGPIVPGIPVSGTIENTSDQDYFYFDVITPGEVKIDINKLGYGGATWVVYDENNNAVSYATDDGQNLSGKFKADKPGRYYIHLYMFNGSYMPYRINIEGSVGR

SMILES	IC50 (recombinant BFT (rBFT); [1])	IC50 (BFT; [2])	IC50 (Gelatinase E (GelE))	other results
CC(C)C[C@H](C(=O)NO)N(Cc1cccnc1)S(=O)(=O)c1cccc(O)c1 [Example 27]	5950 nM	> 50000 nM	–	–
CNC(=O)COc1ccc(S(=O)(=O)N(CC(=O)NO)CC(C)C)cc1 [K]	–	–	512 nM	IC50 (collagenase H (ColH)): > 100000 nM
CC(C)C[C@H](C(=O)NO)N(Cc1ccc2[nH]ccc2c1)S(=O)(=O)c1ccc(O)cc1 [Example 33]	140 nM	1740 nM	–	IC50 (collagenase H (ColH)): 384 nM
CCCOc1ccc(S(=O)(=O)N(CC(=O)NO)CC(C)C)cc1 [D]	–	–	489 nM	IC50 (collagenase H (ColH); read-out: ColH IC50): > 100000 nM
CC(C)C[C@H](C(=O)NO)N(Cc1cnco1)S(=O)(=O)c1ccc(O)cc1 [Example 32]	510 nM	5170 nM	–	–
CC(C)[C@H](C(=O)NO)N(Cc1cccnc1)S(=O)(=O)c1ccc(O)cc1 [OH-CGS-23270A, 2(R)-[4-Hydroxy-N-(3-pyridylmethyl)phenylsulfonamido]-3-methylbutyrohydroxamic acid, reference compound]	–	–	–	cecal weight compared to vehicle control (ETBF; [3]): significantly increased; fecal lipocalin2 compared to vehicle control (ETBF; [3]): significantly decreased
COc1ccc(S(=O)(=O)N(Cc2cccnc2)[C@H](Cc2ccc(C(F)(F)F)cc2)C(=O)NO)cc1 [Example 21]	2750 nM	> 16000 nM	–	–
CCOc1ccc(S(=O)(=O)N(CC(=O)NO)CC(C)C)cc1 [C]	–	–	372 nM	IC50 (collagenase H (ColH); read-out: ColH IC50): > 100000 nM
CC(C)C[C@H](C(=O)NO)N(Cc1ccc(F)cc1)S(=O)(=O)c1ccc(O)cc1 [Example 26]	–	1280 nM	–	IC50 (collagenase H (ColH)): 19300 nM
O=C(NO)[C@@H](Cc1ccc(C(F)(F)F)cc1)N(Cc1cccnc1)S(=O)(=O)c1ccc(O)cc1 [Example 20]	860 nM	7320 nM	–	–
CC[C@H](C(=O)NO)N(CCc1cccnc1)S(=O)(=O)c1ccc(O)cc1 [Example 60, (R)—N-hydroxy-2-((4-hydroxy-N-(2-(pyridin-3-yl)ethyl)phenyl)sulfonamido)butanamide]	18.8 nM	–	–	lipocalin2 levels (ETBF): significantly reduce; IC50 (collagenase H (ColH)): 3820 nM
CC(C)C[C@H](C(=O)NO)N(Cc1cscn1)S(=O)(=O)c1ccc(O)cc1 [Example 30]	–	970 nM	–	–
O=C(NO)[C@@H](Cc1ccc(O)cc1)N(Cc1cccnc1)S(=O)(=O)c1ccc(O)cc1 [Example 4]	2040 nM	6330 nM	–	–
CC(C)CN(CC(=O)NO)S(=O)(=O)c1ccc(OC(C)C)cc1 [E]	–	–	1210 nM	IC50 (collagenase H (ColH); read-out: ColH IC50): > 100000 nM
CC(C)CN(CC(=O)NO)S(=O)(=O)c1ccc(OCc2ccc(F)cc2)cc1 [F]	–	–	649 nM	IC50 (collagenase H (ColH); read-out: ColH IC50): > 100000 nM
COc1ccc(S(=O)(=O)N(Cc2cccnc2)[C@H](Cc2ccccc2)C(=O)NO)cc1 [Example 19]	1240 nM	8260 nM	–	–
COc1ccc(S(=O)(=O)N(CC(=O)O)Cc2cccnc2)cc1 [I]	–	–	> 100000 nM	IC50 (collagenase H (ColH); read-out: ColH IC50): > 100000 nM
CC(C)[C@H](C(=O)NO)N(Cc1cccnc1)S(=O)(=O)c1ccc(O)cc1 [OH-CGS-27023A, 2(R)-[4-hydroxy-N-(3-pyridylmethyl)phenylsulfonamido]-3-methylbutyrohydroxamic acid, reference compound]	–	–	–	IC50 (recombinant BFT (rBFT); Table 9, FIG. 5B, read-out: IC50, inhibition of BFT-induced NFF-3 release): 366 nM; IC50 (BFT; FIG. 4, read-out: IC50, inhibition of BFT (E-cadherin release)): 1990 nM

SMILES	IC50 (recombinant BFT (rBFT); [1])	IC50 (BFT; [2])	IC50 (Gelatinase E (GelE))	other results
O=C(CN(Cc1cccnc1)S(=O)(=O)c1ccc(O)cc1)NO [Example 24]	1100 nM	19100 nM	–	–
CSc1ccc(S(=O)(=O)N(CC(=O)NO)CC(C)C)cc1 [M]	–	–	257 nM	IC50 (collagenase H (ColH); read-out: ColH IC50): > 100000 nM
CC(C)C[C@H](C(=O)NO)N(Cc1ccncc1)S(=O)(=O)c1ccc(O)cc1 [Example 28]	–	198 nM	–	–
CCC[C@H](C(=O)NO)N(Cc1ccc2[nH]ccc2c1)S(=O)(=O)c1ccc(O)cc1 [Example 63]	–	–	–	IC50 (collagenase H (ColH)): 8890 nM
O=C(NO)C(c1ccccc1)N(Cc1cccnc1)S(=O)(=O)c1ccc(O)cc1 (centres unmarked) [Example 22]	660 nM	17300 nM	–	–
CCC[C@H](C(=O)NO)N(Cc1cccnc1)S(=O)(=O)c1ccc(O)cc1 [Example 42]	90 nM	–	–	lipocalin2 levels (ETBF): significantly reduce; IC50 (collagenase H (ColH)): 8780 nM
CC(C)C[C@H](C(=O)NO)N(Cc1cccnc1)S(=O)(=O)c1ccc(O)cc1 [Example 1, (R)—N-hydroxy-2-((4-hydroxy-N-(pyridin-3-ylmethyl)phenyl)sulfonamido)-4-methylpentanamide]	< 150 nM	1520 nM	–	–
COc1ccc(S(=O)(=O)N(CC(=O)NO)CC(C)C)cc1 [A]	–	–	202 nM	GelE inhibition (Gelatinase E (GelE); FIG. 7): high levels of GelE inhibition; ColH inhibition (collagenase H (ColH)): high levels of ColH inhibition; IC50 (collagenase H (ColH); read-out: ColH IC50): 612 nM
COCCOc1ccc(S(=O)(=O)N(CC(=O)NO)CC(C)C)cc1 [G]	–	–	443 nM	IC50 (collagenase H (ColH); read-out: ColH IC50): > 100000 nM
O=C(NO)[C@@H](Cc1c[nH]c2ccccc12)N(Cc1cccnc1)S(=O)(=O)c1ccc(O)cc1 [Example 6]	150 nM	1620 nM	–	–
COc1ccc(S(=O)(=O)N(CC(=O)NO)CC(C)C)cn1 [L]	–	–	336 nM	IC50 (collagenase H (ColH); read-out: ColH IC50): > 100000 nM
CC[C@H](C(=O)NO)N(Cc1cccnc1)S(=O)(=O)c1ccc(O)cc1 [Example 25]	90 nM	780 nM	–	–
COc1cccc(S(=O)(=O)N(Cc2cccnc2)[C@H](CC(C)C)C(=O)NO)c1 [Example 31]	20100 nM	> 50000 nM	–	–
CSCC[C@H](C(=O)NO)N(Cc1cccnc1)S(=O)(=O)c1ccc(O)cc1 [Example 3]	240 nM	3840 nM	–	–
C[C@H](O)[C@H](C(=O)NO)N(Cc1cccnc1)S(=O)(=O)c1ccc(O)cc1 [Example 2]	> 1000 nM	6720 nM	–	–
O=C(NO)C(c1ccc(F)cc1)N(Cc1cccnc1)S(=O)(=O)c1ccc(O)cc1 (centres unmarked) [Example 23]	300 nM	> 50000 nM	–	–
O=C(NO)[C@@H](Cc1ccccc1)N(Cc1cccnc1)S(=O)(=O)c1ccc(O)cc1 [Example 5]	240 nM	4910 nM	–	–
COc1ccc(S(=O)(=O)N(CC(=O)NO)CC(F)F)cc1 [P]	–	–	9090 nM	IC50 (collagenase H (ColH); read-out: ColH IC50): > 100000 nM
